Assay results published in patent US11542235B2, “Herbicidal 3-azaspiro[5.5] undecane-8, 10-dione compounds” (SYNGENTA PARTICIPATIONS AG, priority 2018, dated 2023).

Legend:
Format in all cases: in vivo
[1] = tested on: Echinochloa crus-galli (ECHCG); test: Glasshouse herbicidal test, pre- and post-emergence, Echinochloa crus-galli; conditions: 250 g/h, evaluated after 13 days, five point scale; for percentage damage caused to the plant, ECHCG POST: post-emergence; for percentage damage caused to the plant, ECHCG PRE: pre-emergence
Protocol: (§1) Seeds of a variety of test species are sown in standard soil in pots (Lolium perenne (LOLPE), Setaria faberi (SETFA), Alopecurus myosuroides (ALOMY), Echinochloa crus-galli (ECHCG), Avena fatua (AVEFA)). After cultivation for one day (pre-emergence) or after 8 days cultivation (post-emergence) under controlled conditions in a glasshouse (at 24/16° C., day/night; 14 hours light; 65% humidity), the plants are sprayed with an aqueous spray solution derived from the formulation of the technical active ingredient in acetone/water (50:50) solution containing 0.5% Tween 20 (polyoxyethelyene sorbitan monolaurate, CAS RN 9005-64-5). Compounds are applied at […]. The test plants are then grown in a glasshouse under controlled conditions in a glasshouse (at 24/16° C., day/night; 14 hours light; 65% humidity) and watered twice daily. After 13 days for pre and post-emergence, the test is evaluated for the percentage damage caused to the plant. The biological activities are shown in the following table on a five point scale (5=80-100%; 4=60-79%; 3=40-59%; 2=20-39%; 1=0-19%).

Setaria faberi (SETFA) = test: Glasshouse herbicidal test, pre- and post-emergence, Setaria faberi; conditions: 250 g/h, evaluated after 13 days, five point scale; for percentage damage caused to the plant, SETFA POST: post-emergence; for percentage damage caused to the plant, SETFA PRE: pre-emergence
Protocol: as §1

Avena fatua (AVEFA) = test: Glasshouse herbicidal test, pre- and post-emergence, Avena fatua; conditions: 250 g/h, evaluated after 13 days, five point scale; for percentage damage caused to the plant, AVEFA POST: post-emergence; for percentage damage caused to the plant, AVEFA PRE: pre-emergence
Protocol: as §1

[2] = tested on: Alopecurus myosuroides (ALOMY); test: Glasshouse herbicidal test, pre- and post-emergence, Alopecurus myosuroides; conditions: 250 g/h, evaluated after 13 days, five point scale; for percentage damage caused to the plant, ALOMY POST: post-emergence; for percentage damage caused to the plant, ALOMY PRE: pre-emergence
Protocol: as §1

Lolium perenne (LOLPE) = test: Glasshouse herbicidal test, pre- and post-emergence, Lolium perenne; conditions: 250 g/h, evaluated after 13 days, five point scale; for percentage damage caused to the plant, LOLPE POST: post-emergence; for percentage damage caused to the plant, LOLPE PRE: pre-emergence
Protocol: as §1

Structure (SMILES) | percentage damage caused to the plant, ECHCG POST [1] | percentage damage caused to the plant, ECHCG PRE [1] | percentage damage caused to the plant, SETFA POST (Setaria faberi (SETFA)) | percentage damage caused to the plant, SETFA PRE (Setaria faberi (SETFA)) | percentage damage caused to the plant, AVEFA POST (Avena fatua (AVEFA)) | percentage damage caused to the plant, AVEFA PRE (Avena fatua (AVEFA)) | percentage damage caused to the plant, ALOMY POST [2] | percentage damage caused to the plant, ALOMY PRE [2] | percentage damage caused to the plant, LOLPE POST (Lolium perenne (LOLPE)) | percentage damage caused to the plant, LOLPE PRE (Lolium perenne (LOLPE))
CC#Cc1cc(C)c(C2=C(OS(=O)(=O)CC)CC3(CCN(C(C)=O)CC3)CC2=O)c(C)c1 [Compound P13] | 5 (5=80-100%) | 4 (4=60-79%) | 5 (5=80-100%) | 5 (5=80-100%) | 5 (5=80-100%) | 5 (5=80-100%) | 5 (5=80-100%) | 4 (4=60-79%) | 5 (5=80-100%) | 5 (5=80-100%)
CC#Cc1cc(C)c(C2=C(OC(=O)SC(C)C)CC3(CCN(C(C)=O)CC3)CC2=O)c(C)c1 [Compound P14] | 5 (5=80-100%) | 5 (5=80-100%) | 5 (5=80-100%) | 5 (5=80-100%) | 5 (5=80-100%) | 5 (5=80-100%) | 5 (5=80-100%) | 5 (5=80-100%) | 5 (5=80-100%) | 5 (5=80-100%)
CC#Cc1cc(C)c(C2=C(OC(=O)C3CC3)CC3(CCN(C(C)=O)CC3)CC2=O)c(C)c1 [Compound P15] | 5 (5=80-100%) | 5 (5=80-100%) | 5 (5=80-100%) | 5 (5=80-100%) | 5 (5=80-100%) | 5 (5=80-100%) | 5 (5=80-100%) | 5 (5=80-100%) | 5 (5=80-100%) | 5 (5=80-100%)
CC#Cc1cc(C)c(C2=C(OC(=O)OC)CC3(CCN(C(=O)C(F)F)CC3)CC2=O)c(C)c1 [Compound P16] | 5 (5=80-100%) | 5 (5=80-100%) | 5 (5=80-100%) | 5 (5=80-100%) | 5 (5=80-100%) | 5 (5=80-100%) | 5 (5=80-100%) | 5 (5=80-100%) | 5 (5=80-100%) | 5 (5=80-100%)
C#CCOC1=C(c2c(C)cc(C#CC)cc2C)C(=O)CC2(CCN(C(C)=O)CC2)C1 [Compound P17] | – | 5 (5=80-100%) | 5 (5=80-100%) | 5 (5=80-100%) | 5 (5=80-100%) | 5 (5=80-100%) | 5 (5=80-100%) | 5 (5=80-100%) | 5 (5=80-100%) | 5 (5=80-100%)
CC#Cc1cc(C)c(C2=C(OC(=O)OC)CC3(CCN(C(C)=O)CC3)CC2=O)c(OC)c1 [Compound P18] | – | 5 (5=80-100%) | 5 (5=80-100%) | 5 (5=80-100%) | 5 (5=80-100%) | 5 (5=80-100%) | 5 (5=80-100%) | 5 (5=80-100%) | 5 (5=80-100%) | 5 (5=80-100%)
